From patent US20230047788A1, “COMPOSITIONS COMPRISING 5-CHOLESTEN-3, 25-DIOL, 3-SULFATE (25HC3S) OR PHARMACEUTICALLY ACCEPTABLE SALT THEREOF AND AT LEAST ONE CYCLIC OLIGOSACCHARIDE” (Virginia Commonwealth University, priority 2016, published 2023)

How the values were obtained:
[1] = Stability testing for 25HC3S sodium salt for injection, 30 mg/mL after constitution; type: physicochemical; settings: for Degree of Coloration of Liquids: BY = brown-yellow
Procedure: Sterile water for injection, USP (6.14 kg) was added into a 10L stainless steel vessel. […] HPbCD, NF (1851.85 g) was added in small portions over 15 minutes with slow stirring into the beaker. The stirring was increased to 250-350 rpm for an additional minimum 30 minutes to form a clear solution. The solution was filtered through a 0.22 micron filter. Filtered vehicle (7 mL) was filled into 10 mL glass vials, which were sealed with 20 mm stoppers, and crimp sealed. The vehicle vials were sterilized with gamma irradiation at approximately 28-32 kGy.
25HC3S sodium salt was micronized by passing through a Fluid Energy Model 00 Jet-O-Mizer Jet Mill. Micronized drug substance (186 mg) was added into a 10 mL glass vial, sealed with 20 mm stoppers, and crimp sealed. The 25HC3S powder vials were sterilized with gamma irradiation at approximately 28-32 kGy
Sterile vehicle (6.0 mL) comprised of 250 mg/mL HPbCD and 10 mM phosphate buffer was added to a vial of 25HC3S micronized powder. The mixture was shaken for 15 minutes to prepare a solution resulting in a 25HC3S sodium salt concentration of 30 mg/mL (allowing for 3% dilution upon the dissolution of drug).
Stability data for 6 months at 2-8° C. to 40° C./75% RH for 25HC3S for injection, 30 mg/mL after constitution, are listed in Table 5. This lot of 25HC3S powder, and the vehicle used to constitute it, were gamma sterilized at approximately 28-32 kGy. The data supports a 12 month retest date when stored at 2-8° C.

[2] = Compatibility of 25HC3S for Injection with container closure system; type: physicochemical; settings: 10 mL glass vial, FluroTec coated stopper; up to 12 months 2-8°C, 6 months 25°C/60% RH and 40°C/75% RH, inverted
Procedure: 25HC3S for Injection is a sterile powder, for injection solution. The 25HC3S stability with the 10 mL glass vial and FluroTec® coated stopper was studied up to 12 months at 2-8° C., 6 months at 25° C./60% RH, and 6 months at 40° C./75% RH with vials stored in the inverted orientation.

[3] = system: mice overdosed with APAP; assay: Mortality in mice overdosed with APAP (600 mg/kg); type: in vivo, C57BL/6J mice; settings: APAP 600 mg/kg ip; 25 mg/kg 25HC3S iv 0.5 hours after APAP; 5 days after overdose
Procedure: The ability of 25HC3S to treat symptoms of APAP overdose was examined. 12-week-old male C57BL/6J mice were fasted overnight and injected (intraperitoneally) with APAP: 600 mg/kg (high dose) for mortality studies or 350 mg/kg (low dose) for liver function and gene studies. Control mice received only vehicle (20% (v/v) a propylene glycol, 4% (w/v) cyclodextrin (powdered hydroxypropyl beta cyclodextrin in sterile 10% (w/v) glucose.
A composition comprising 25 mg/kg of 25HC3S sodium salt in vehicle was administered intravenously to the experimental mice 0.5 hours after APAP administration. Mortality was monitored in the high dose mice. In the low dose mice, the liver function markers aspartate aminotransferase (AST), alanine aminotransferase (ALT), alkaline phosphatase (ALK) and lactate dehydrogenase (LDH), were measured in serum. Impacts on gene expression were determined by Quantitative Real-time PCR. Membrane potentials were measured using JC1 staining and flow cytometry.

SMILES: C[C@H](CCCC(C)(C)O)[C@H]1CC[C@H]2[C@@H]3CC=C4C[C@@H](OS(=O)(=O)[O-])CC[C@]4(C)[C@H]3CC[C@]12C.[Na+] [25HC3S, 5-cholesten-3, 25-diol, 3-sulfate]
- % Individual Unspecified Degradant RRT = 0.60 ([1]; 2-8°C, 0 months): 0.2%
- % Individual Unspecified Degradant RRT = 0.64 ([1]; 2-8°C, 0 months): 0.4%
- % Individual Unspecified Degradant RRT = 2.74 ([1]; 2-8°C, 0 months): 0.4%
- % Individual Unspecified Degradant RRT = 3.77 ([1]; 2-8°C, 0 months): 0.3%
- % Total Degradation Products ([1]; 2-8°C, 0 months): 2.5%
- % Water Content ([1]; 2-8°C, 0 months): 6.23%
- Appearance ([1]; 2-8°C, 0 months): White powder
- Assay (label strength of 30 mg/mL) ([1]; 2-8°C, 0 months): Mean: 98.7%
- Osmolality ([1]; 2-8°C, 0 months): 321 mmol/kg
- pH ([1]; 2-8°C, 0 months): 6.62
- Degree of Coloration of Liquids ([1]; 2-8°C, 0 months): BY6
- % Individual Unspecified Degradant RRT = 0.60 ([1]; 2-8°C, 3 months): 0.2%
- % Individual Unspecified Degradant RRT = 0.64 ([1]; 2-8°C, 3 months): 0.4%
- % Individual Unspecified Degradant RRT = 2.74 ([1]; 2-8°C, 3 months): 0.4%
- % Individual Unspecified Degradant RRT = 3.77 ([1]; 2-8°C, 3 months): 0.3%
- % Total Degradation Products ([1]; 2-8°C, 3 months): 2.8%
- % Water Content ([1]; 2-8°C, 3 months): 5.62%
- Assay (label strength of 30 mg/mL) ([1]; 2-8°C, 3 months): 96.7%
- Osmolality ([1]; 2-8°C, 3 months): 322 mmol/kg
- pH ([1]; 2-8°C, 3 months): 5.82
- % Individual Unspecified Degradant RRT = 0.60 ([1]; 2-8°C, 6 months): 0.3%
- % Individual Unspecified Degradant RRT = 0.64 ([1]; 2-8°C, 6 months): 0.4%
- % Individual Unspecified Degradant RRT = 2.74 ([1]; 2-8°C, 6 months): 0.4%
- % Individual Unspecified Degradant RRT = 3.77 ([1]; 2-8°C, 6 months): 0.3%
- % Total Degradation Products ([1]; 2-8°C, 6 months): 3.0%
- % Water Content ([1]; 2-8°C, 6 months): 6.13%
- Assay (label strength of 30 mg/mL) ([1]; 2-8°C, 6 months): 100.0%
- Osmolality ([1]; 2-8°C, 6 months): 323 mmol/kg
- pH ([1]; 2-8°C, 6 months): 5.34
- Degree of Coloration of Liquids ([1]; 2-8°C, 6 months): BY6
- % Individual Unspecified Degradant RRT = 0.60 ([1]; 25°C/60% RH, 1 month): 0.3%
- % Individual Unspecified Degradant RRT = 0.64 ([1]; 25°C/60% RH, 1 month): 0.4%
- % Individual Unspecified Degradant RRT = 2.74 ([1]; 25°C/60% RH, 1 month): 0.4%
- % Individual Unspecified Degradant RRT = 3.77 ([1]; 25°C/60% RH, 1 month): 0.3%
- % Total Degradation Products ([1]; 25°C/60% RH, 1 month): 2.9%
- % Water Content ([1]; 25°C/60% RH, 1 month): 5.29%
- Assay (label strength of 30 mg/mL) ([1]; 25°C/60% RH, 1 month): 98.3%
- Osmolality ([1]; 25°C/60% RH, 1 month): 330 mmol/kg
- pH ([1]; 25°C/60% RH, 1 month): 5.18
- % Individual Unspecified Degradant RRT = 0.60 ([1]; 25°C/60% RH, 3 months): 0.3%
- % Individual Unspecified Degradant RRT = 0.64 ([1]; 25°C/60% RH, 3 months): 0.4%
- % Individual Unspecified Degradant RRT = 2.74 ([1]; 25°C/60% RH, 3 months): 0.4%
- % Individual Unspecified Degradant RRT = 3.77 ([1]; 25°C/60% RH, 3 months): 0.3%
- % Total Degradation Products ([1]; 25°C/60% RH, 3 months): 2.9%
- % Water Content ([1]; 25°C/60% RH, 3 months): 5.40%
- Assay (label strength of 30 mg/mL) ([1]; 25°C/60% RH, 3 months): 96.0%
- Osmolality ([1]; 25°C/60% RH, 3 months): 322 mmol/kg
- Degree of Coloration of Liquids ([1]; 25°C/60% RH, 3 months): BY5
- % Individual Unspecified Degradant RRT = 0.60 ([1]; 25°C/60% RH, 6 months): 0.4%
- % Individual Unspecified Degradant RRT = 0.64 ([1]; 25°C/60% RH, 6 months): 0.4%
- % Individual Unspecified Degradant RRT = 2.74 ([1]; 25°C/60% RH, 6 months): 0.4%
- % Individual Unspecified Degradant RRT = 3.77 ([1]; 25°C/60% RH, 6 months): 0.3%
- % Total Degradation Products ([1]; 25°C/60% RH, 6 months): 3.0%
- % Water Content ([1]; 25°C/60% RH, 6 months): 5.65%
- Assay (label strength of 30 mg/mL) ([1]; 25°C/60% RH, 6 months): 96.2%
- Osmolality ([1]; 25°C/60% RH, 6 months): 319 mmol/kg
- Degree of Coloration of Liquids ([1]; 25°C/60% RH, 6 months): BY5
- % Individual Unspecified Degradant RRT = 0.60 ([1]; 40°C/75% RH, 1 month): 0.3%
- % Individual Unspecified Degradant RRT = 0.64 ([1]; 40°C/75% RH, 1 month): 0.4%
- % Individual Unspecified Degradant RRT = 2.74 ([1]; 40°C/75% RH, 1 month): 0.4%
- % Individual Unspecified Degradant RRT = 3.77 ([1]; 40°C/75% RH, 1 month): 0.3%
- % Total Degradation Products ([1]; 40°C/75% RH, 1 month): 2.9%
- % Water Content ([1]; 40°C/75% RH, 1 month): 5.03%
- Assay (label strength of 30 mg/mL) ([1]; 40°C/75% RH, 1 month): 95.8%
- Osmolality ([1]; 40°C/75% RH, 1 month): 330 mmol/kg
- % Individual Unspecified Degradant RRT = 0.60 ([1]; 40°C/75% RH, 3 months): 0.3%
- % Individual Unspecified Degradant RRT = 0.64 ([1]; 40°C/75% RH, 3 months): 0.4%
- % Individual Unspecified Degradant RRT = 2.74 ([1]; 40°C/75% RH, 3 months): 0.5%
- % Individual Unspecified Degradant RRT = 3.77 ([1]; 40°C/75% RH, 3 months): 0.4%
- % Total Degradation Products ([1]; 40°C/75% RH, 3 months): 3.3%
- % Water Content ([1]; 40°C/75% RH, 3 months): 5.33%
- Assay (label strength of 30 mg/mL) ([1]; 40°C/75% RH, 3 months): 96.2%
- Osmolality ([1]; 40°C/75% RH, 3 months): 327 mmol/kg
- % Individual Unspecified Degradant RRT = 0.60 ([1]; 40°C/75% RH, 6 months): 0.4%
- % Individual Unspecified Degradant RRT = 0.64 ([1]; 40°C/75% RH, 6 months): 0.5%
- % Individual Unspecified Degradant RRT = 2.74 ([1]; 40°C/75% RH, 6 months): 0.4%
- % Individual Unspecified Degradant RRT = 3.77 ([1]; 40°C/75% RH, 6 months): 0.3%
- % Total Degradation Products ([1]; 40°C/75% RH, 6 months): 2.8%
- % Water Content ([1]; 40°C/75% RH, 6 months): 6.34%
- Assay (label strength of 30 mg/mL) ([1]; 40°C/75% RH, 6 months): 97.1%
- Osmolality ([1]; 40°C/75% RH, 6 months): 324 mmol/kg
- retest date supported by the data ([1]; stored at 2-8°C): 12 month
- compatibility with container closure system [2]: good compatibility
- mice that had died [3]: one
